Patent publication US20240174641A1, “HETEROCYCLIC COMPOUNDS CAPABLE OF […]” (Boehringer Ingelheim International GmbH, priority 2022, published 2024)

Key:
[1] = test system: dog STING (dSTING); test: Dog differential scanning fluorimetry (DSF) assay, thermal shift of dog STING protein; format: binding; conditions: DSF (dDSF); 100 μM compound, 3 μM dog STING protein; Tm with ligand minus Tm of protein alone
Procedure, shortened: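 Dog STING residues 149–375, His-tag removed by TEV, tested at 3 μM with 100 μM compound, 5× SYPRO Orange and 2% DMSO in 20 mM Tris, 150 mM NaCl, pH 7.5. Heated 15–95 °C in 0.5 °C steps. Tm from Boltzmann fit, duplicates averaged; ΔTm relative to protein alone.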

[2] = molecular target: STING (Canis lupus familiaris, UniProt A0A8I3MH52); test: Dog whole blood (dWB) assay, IFNb secretion by ELISA; format: cell-based; conditions: canine Interferon-beta (IFNb) ELISA, 4 h incubation at 37° C.
Procedure, shortened: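 Citrated dog whole blood (stored overnight at 4 °C) was preincubated with compound for 60 min at room temperature, top concentration 10 μM with about 1:4 steps and 0.1% DMSO. It was then incubated 4 h at 37 °C, with cGAMP added only to the high-control wells. Plasma IFNb was measured by canine ELISA (A450), normalised to the cGAMP-stimulated and unstimulated controls, and EC50 was fitted with a 4-parameter logistic model.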

Sequence of STING (A0A8I3MH52 1-374): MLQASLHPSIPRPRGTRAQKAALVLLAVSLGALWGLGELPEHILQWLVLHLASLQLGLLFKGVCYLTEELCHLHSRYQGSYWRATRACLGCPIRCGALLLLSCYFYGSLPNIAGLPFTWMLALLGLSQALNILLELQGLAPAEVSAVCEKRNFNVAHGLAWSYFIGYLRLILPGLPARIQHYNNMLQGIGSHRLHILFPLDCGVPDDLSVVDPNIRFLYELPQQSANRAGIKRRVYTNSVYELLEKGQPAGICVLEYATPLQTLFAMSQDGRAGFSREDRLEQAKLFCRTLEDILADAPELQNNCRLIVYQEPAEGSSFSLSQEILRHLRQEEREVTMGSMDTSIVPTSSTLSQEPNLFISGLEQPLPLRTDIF

Question: Which results are given for `Cc1cc(F)cc2c(-c3cccc4nn(C)c(F)c34)nn(-c3ccc(N4CCC(C(=O)O)CC4)nc3)c12` [Example 58, 1-(5-{3″,5-difluoro-2″,7-dimethyl-1H,2″H-[3,4″-biindazol]-1-yl}pyridin-2-yl)piperidine-4-carboxylic acid]?
Answer: Delta TM [1]: 33.0 °C; EC50 [2]: 207 nM

Question: For `CC(=O)N1CCN(c2ccc(-n3nc(-c4cccc5nn(C)c(F)c45)c4cc(F)cc(C)c43)cn2)CC1` [Example 59, 1-[4-(5-{3″,5-difluoro-2″,7-dimethyl-1H,2″H-[3,4″-biindazol]-1-yl}pyridin-2-yl)piperazin-1-yl]ethan-1-one], which “Delta TM” value [1] is on record?
Answer: The value was 22.0 °C.

Question: And the EC50 [2]?
Answer: Its EC50 is 207 nM.

Question: `Cc1c(F)ccc2c(-c3cccc4nn(C)c(F)c34)nn(-c3ccc(N4CCC(C(=O)O)CC4)nc3)c12` [Example 60, 1-(5-{3″,6-difluoro-2″,7-dimethyl-1H,2″H-[3,4″-biindazol]-1-yl}pyridin-2-yl)piperidine-4-carboxylic acid] was tested. Which “Delta TM” value [1] did it give?
Answer: The value was 34.5 °C.

Question: What about the EC50 [2] of the same molecule?
Answer: Its EC50 is 195 nM.

Question: How did the “Delta TM” value [1] turn out when `CC(=O)N1CCN(c2ccc(-n3nc(-c4cccc5nn(C)c(F)c45)c4ccc(F)c(C)c43)cn2)CC1` [Example 61, 1-[4-(5-{3″,6-difluoro-2″,7-dimethyl-1H,2″H-[3,4″-biindazol]-1-yl}pyridin-2-yl)piperazin-1-yl]ethan-1-one] was run?
Answer: The value was 30.8 °C.

Question: What about the EC50 [2] of the same molecule?
Answer: Its EC50 is 245 nM.

Question: Which “Delta TM” value [1] does the source give for `Cc1cc(F)cc2c(-c3c(F)ccc4nn(C)cc34)nn(-c3ccc(N4CCC(C(=O)O)CC4)nc3)c12` [Example 62, 1-(5-{5,5″-difluoro-2″,7-dimethyl-1H,2″H-[3,4″-biindazol]-1-yl}pyridin-2-yl)piperidine-4-carboxylic acid] here?
Answer: The value was 38.0 °C.

Question: And the EC50 [2]?
Answer: The EC50 was 295 nM.

Question: Which results are given for `CC(=O)N1CCN(c2ccc(-n3nc(-c4c(F)ccc5nn(C)cc45)c4cc(F)cc(C)c43)cn2)CC1` [Example 63, 1-[4-(5-{5,5″-difluoro-2″,7-dimethyl-1H,2″H-[3,4″-biindazol]-1-yl}pyridin-2-yl)piperazin-1-yl]ethan-1-one]?
Answer: Delta TM [1]: 27.4 °C; EC50 [2]: 96.8 nM

Question: How did the “Delta TM” value [1] turn out when `Cc1c(F)ccc2c(-c3c(F)ccc4nn(C)cc34)nn(-c3ccc(N4C[C@@H]5[C@H](C4)[C@H]5C(=O)O)nc3)c12` [Example 64, (1R,5S,6R)-3-(5-{5″,6-difluoro-2″,7-dimethyl-1H,2″H-[3,4″-biindazol]-1-yl}pyridin-2-yl)-3-azabicyclo[3.1.0]hexane-6-carboxylic acid] was run?
Answer: Its value is 36.5 °C.

Question: And the EC50 [2]?
Answer: Its EC50 is 666 nM.

Question: Which results are given for `Cc1c(F)ccc2c(-c3c(F)ccc4nn(C)cc34)nn(-c3ccc(N4CCC(C(=O)O)CC4)nc3)c12` [Example 65, 1-(5-{5″,6-difluoro-2″,7-dimethyl-1H,2″H-[3,4″-biindazol]-1-yl}pyridin-2-yl)piperidine-4-carboxylic acid]?
Answer: Delta TM [1]: 36.5 °C; EC50 [2]: 330 nM

Question: How did the “Delta TM” value [1] turn out when `CC(=O)N1CCN(c2ccc(-n3nc(-c4cccc5nn(C)c(F)c45)c4ccc(F)c(C)c43)cn2)CC1` [Example 66, 1-[4-(5-{5″,6-difluoro-2″,7-dimethyl-1H,2″H-[3,4″-biindazol]-1-yl}pyridin-2-yl)piperazin-1-yl]ethan-1-one] was run?
Answer: The value was 25.8 °C.

Question: What about the EC50 [2] of the same molecule?
Answer: Its EC50 is 179 nM.

Question: With `Cc1cc(F)cc2c(-c3c(F)cc(F)c4nn(C)cc34)nn(-c3ccc(N4CCC(C(=O)O)CC4)nc3)c12` [Example 67, 1-(5-{5,5″,7″-trifluoro-2″,7-dimethyl-1H,2″H-[3,4″-biindazol]-1-yl}pyridin-2-yl)piperidine-4-carboxylic acid] as the molecule, how does the “Delta TM” value [1] read?
Answer: Its value is 37.0 °C.

Question: And the EC50 [2]?
Answer: Its EC50 is 102 nM.

Question: For `CC(=O)N1CCN(c2ccc(-n3nc(-c4c(F)cc(F)c5nn(C)cc45)c4cc(F)cc(C)c43)cn2)CC1` [Example 68], which “Delta TM” value [1] is on record?
Answer: The value was 28.5 °C.

Question: And the EC50 [2]?
Answer: The EC50 was 106 nM.

Question: For `Cc1c(F)ccc2c(-c3c(F)cc(F)c4nn(C)cc34)nn(-c3ccc(N4CCC(C(=O)O)CC4)nc3)c12` [Example 70, 1-(5-{5″,6,7″-trifluoro-2″,7-dimethyl-1H,2″H-[3,4″-biindazol]-1-yl}pyridin-2-yl)piperidine-4-carboxylic acid], which “Delta TM” value [1] is on record?
Answer: Its value is 34.5 °C.

Question: What about the EC50 [2] of the same molecule?
Answer: The EC50 was 296 nM.

Question: Which results are given for `Cc1cccc2c(-c3cccc4nn(C)c(F)c34)nn(-c3ccc(N4C[C@H]5C[C@@H]4C[C@@H]5C(=O)O)nc3)c12` [Example 73-1, (1R,4S,5S)-2-(5-{3″-fluoro-2″,7-dimethyl-1H,2″H-[3,4″-biindazol]-1-yl}pyridin-2-yl)-2-azabicyclo[2.2.1]heptane-5-carboxylic acid]?
Answer: Delta TM [1]: 34.5 °C; EC50 [2]: 87.5 nM

Question: What does the source list for `Cc1cccc2c(-c3cccc4nn(C)c(F)c34)nn(-c3ccc(N4C[C@@H]5C[C@H]4C[C@H]5C(=O)O)nc3)c12` [Example 73-2, (1S,4R,5R)-2-(5-{3″-fluoro-2″,7-dimethyl-1H,2″H-[3,4″-biindazol]-1-yl}pyridin-2-yl)-2-azabicyclo[2.2.1]heptane-5-carboxylic acid]?
Answer: Delta TM [1]: 33.3 °C; EC50 [2]: 232 nM

Question: How did the “Delta TM” value [1] turn out when `Cc1cccc2c(-c3c(F)ccc4nn(C)c(F)c34)nn(-c3ccc(N4C[C@@H]5[C@H](C4)[C@H]5C(=O)O)nc3)c12` [Example 74, (1R,5S,6R)-3-(5-{3″,5″-difluoro-2″,7-dimethyl-1H,2″H-[3,4″-biindazol]-1-yl}pyridin-2-yl)-3-azabicyclo[3.1.0]hexane-6-carboxylic acid] was run?
Answer: Its value is 36.4 °C.

Question: And the EC50 [2]?
Answer: Its EC50 is 160 nM.

Question: For `Cc1cccc2c(-c3c(F)cc(F)c4nn(C)c(F)c34)nn(-c3ccc(N4C[C@@H]5[C@H](C4)[C@H]5C(=O)O)nc3)c12` [Example 76, (1R,5S,6R)-3-(5-{3″,5″,7″-trifluoro-2″,7-dimethyl-1H,2″H-[3,4″- biindazol]-1-yl}pyridin-2-yl)-3-azabicyclo[3.1.0]hexane-6-carboxylic acid], which “Delta TM” value [1] is on record?
Answer: The value was 33.0 °C.

Question: And the EC50 [2]?
Answer: Its EC50 is 695 nM.

Question: `Cc1cccc2c(-c3c(Cl)ccc4nn(C)cc34)nn(-c3ccc(N4C[C@@H]5[C@H](C4)[C@H]5C(=O)O)nc3)c12` [Example 77, (1R,5S,6S)-3-(5-{5″-chloro-2″,7-dimethyl-1H,2″H-[3,4″-biindazol]-1-yl}pyridin-2-yl)-3-azabicyclo[3.1.0]hexane-6-carboxylic acid] was tested. Which “Delta TM” value [1] did it give?
Answer: The value was 27.4 °C.

Question: What about the EC50 [2] of the same molecule?
Answer: Its EC50 is 1090 nM.

Question: Which results are given for `CC(=O)N1CCN(c2ccc(-n3nc(-c4c(Cl)ccc5nn(C)cc45)c4cccc(C)c43)cn2)CC1` [Example 78]?
Answer: Delta TM [1]: 18.4 °C; EC50 [2]: 817 nM
